Reference: ChEMBL document CHEMBL2157895, “Selective Dual Inhibitors of the Cancer-Related Deubiquitylating Proteases USP7 and USP47” (ACS Med Chem Lett, 2012)
Calls of active or inactive are those of the source. The rule behind the calls is not given here.

Columns and labels:
[1] = target: T1, Ubiquitin carboxyl-terminal hydrolase 2 (Homo sapiens) (UniProt O75604); test: Inhibition of USP2 expressed in Escherichia coli BL21(DE3) by Ub-CHOP reporter assay
T1 sequence (whole entry): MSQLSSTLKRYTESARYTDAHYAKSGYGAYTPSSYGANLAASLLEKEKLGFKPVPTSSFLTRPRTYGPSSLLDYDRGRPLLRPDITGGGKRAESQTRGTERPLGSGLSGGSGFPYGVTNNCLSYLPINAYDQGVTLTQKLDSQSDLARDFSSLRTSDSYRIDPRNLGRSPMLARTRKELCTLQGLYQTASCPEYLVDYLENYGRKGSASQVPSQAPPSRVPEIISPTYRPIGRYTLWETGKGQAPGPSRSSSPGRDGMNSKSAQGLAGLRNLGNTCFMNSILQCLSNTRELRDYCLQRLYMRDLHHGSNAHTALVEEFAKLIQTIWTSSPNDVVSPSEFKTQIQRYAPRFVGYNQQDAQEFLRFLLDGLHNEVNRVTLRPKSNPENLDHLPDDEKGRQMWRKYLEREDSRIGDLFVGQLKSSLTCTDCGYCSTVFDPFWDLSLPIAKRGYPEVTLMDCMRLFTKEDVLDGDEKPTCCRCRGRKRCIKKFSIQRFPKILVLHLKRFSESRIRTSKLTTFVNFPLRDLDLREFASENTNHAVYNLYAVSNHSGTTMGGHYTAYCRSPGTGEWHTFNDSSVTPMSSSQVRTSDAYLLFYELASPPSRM

[2] = target: T2, Ubiquitin carboxyl-terminal hydrolase 47 (Homo sapiens) (UniProt Q96K76); test: Inhibition of USP47 in human HeLa cells assessed as polymerase-beta degradation; type: cell-based
T2 sequence (whole entry): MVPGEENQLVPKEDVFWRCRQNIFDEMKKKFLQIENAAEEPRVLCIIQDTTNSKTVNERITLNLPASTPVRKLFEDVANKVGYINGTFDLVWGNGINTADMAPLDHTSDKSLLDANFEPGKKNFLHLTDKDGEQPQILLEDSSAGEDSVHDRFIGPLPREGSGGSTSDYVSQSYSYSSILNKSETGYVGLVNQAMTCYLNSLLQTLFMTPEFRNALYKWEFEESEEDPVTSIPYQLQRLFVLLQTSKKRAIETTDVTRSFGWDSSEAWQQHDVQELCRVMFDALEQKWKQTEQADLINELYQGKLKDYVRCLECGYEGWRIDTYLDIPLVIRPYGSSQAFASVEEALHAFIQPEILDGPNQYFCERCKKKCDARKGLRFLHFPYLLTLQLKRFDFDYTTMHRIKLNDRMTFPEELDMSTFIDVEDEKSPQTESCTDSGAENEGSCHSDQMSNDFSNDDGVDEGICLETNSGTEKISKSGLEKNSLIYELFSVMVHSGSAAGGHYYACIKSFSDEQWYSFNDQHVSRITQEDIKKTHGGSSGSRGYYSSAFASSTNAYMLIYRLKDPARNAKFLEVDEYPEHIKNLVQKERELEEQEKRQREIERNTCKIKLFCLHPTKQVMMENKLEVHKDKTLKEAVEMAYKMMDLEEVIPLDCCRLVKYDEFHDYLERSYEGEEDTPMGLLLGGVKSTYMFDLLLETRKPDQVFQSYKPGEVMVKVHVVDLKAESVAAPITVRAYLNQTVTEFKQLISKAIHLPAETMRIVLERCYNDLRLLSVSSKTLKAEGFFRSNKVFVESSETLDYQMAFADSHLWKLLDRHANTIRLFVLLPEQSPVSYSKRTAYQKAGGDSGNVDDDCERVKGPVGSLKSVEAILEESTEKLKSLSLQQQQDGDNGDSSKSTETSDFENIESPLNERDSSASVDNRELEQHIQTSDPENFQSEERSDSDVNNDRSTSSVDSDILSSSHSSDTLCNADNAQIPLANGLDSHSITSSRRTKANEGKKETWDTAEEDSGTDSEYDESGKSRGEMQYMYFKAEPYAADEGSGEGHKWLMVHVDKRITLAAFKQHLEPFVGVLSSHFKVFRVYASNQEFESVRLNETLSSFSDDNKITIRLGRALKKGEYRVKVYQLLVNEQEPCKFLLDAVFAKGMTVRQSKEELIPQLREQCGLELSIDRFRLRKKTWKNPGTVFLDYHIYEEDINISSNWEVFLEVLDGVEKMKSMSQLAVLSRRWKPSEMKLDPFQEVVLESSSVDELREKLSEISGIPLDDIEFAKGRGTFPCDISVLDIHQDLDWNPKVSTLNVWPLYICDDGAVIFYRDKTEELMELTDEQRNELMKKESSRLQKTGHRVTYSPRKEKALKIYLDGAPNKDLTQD

[3] = target: T3, Ubiquitin carboxyl-terminal hydrolase 8 (Homo sapiens) (UniProt P40818); test: Inhibition of USP8 by Ub-CHOP reporter assay
T3 sequence (whole entry): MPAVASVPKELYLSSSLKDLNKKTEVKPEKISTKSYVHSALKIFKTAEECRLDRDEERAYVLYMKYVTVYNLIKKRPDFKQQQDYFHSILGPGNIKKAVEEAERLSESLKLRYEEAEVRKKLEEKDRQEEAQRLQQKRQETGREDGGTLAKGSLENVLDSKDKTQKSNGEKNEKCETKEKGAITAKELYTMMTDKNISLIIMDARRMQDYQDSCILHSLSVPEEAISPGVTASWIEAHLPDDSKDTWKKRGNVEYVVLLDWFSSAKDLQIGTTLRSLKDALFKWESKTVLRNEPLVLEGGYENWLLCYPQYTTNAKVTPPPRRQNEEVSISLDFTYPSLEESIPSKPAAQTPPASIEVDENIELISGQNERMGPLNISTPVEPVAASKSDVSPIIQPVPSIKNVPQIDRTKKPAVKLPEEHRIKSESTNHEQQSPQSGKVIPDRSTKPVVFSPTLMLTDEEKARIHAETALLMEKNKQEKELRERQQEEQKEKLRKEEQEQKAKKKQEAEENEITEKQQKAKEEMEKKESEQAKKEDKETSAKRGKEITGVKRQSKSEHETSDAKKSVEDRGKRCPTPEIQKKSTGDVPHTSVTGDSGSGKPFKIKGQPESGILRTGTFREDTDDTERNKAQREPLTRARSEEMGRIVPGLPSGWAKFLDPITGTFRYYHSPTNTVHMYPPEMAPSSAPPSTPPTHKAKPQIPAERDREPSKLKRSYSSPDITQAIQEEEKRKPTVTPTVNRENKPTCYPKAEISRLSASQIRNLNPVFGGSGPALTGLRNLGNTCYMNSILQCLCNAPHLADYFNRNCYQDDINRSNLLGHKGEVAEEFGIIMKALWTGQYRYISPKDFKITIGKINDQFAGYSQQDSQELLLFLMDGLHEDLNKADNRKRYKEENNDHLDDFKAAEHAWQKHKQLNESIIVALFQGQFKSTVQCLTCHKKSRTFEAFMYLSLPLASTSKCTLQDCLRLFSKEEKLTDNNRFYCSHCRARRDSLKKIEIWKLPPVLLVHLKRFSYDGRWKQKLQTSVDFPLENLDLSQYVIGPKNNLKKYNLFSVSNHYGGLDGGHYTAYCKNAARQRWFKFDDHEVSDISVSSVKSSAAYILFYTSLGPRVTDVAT

[4] = Inhibition of 20s proteasome

## CS(=O)(=O)c1ccc(NC(=O)c2cc(C#N)c(Sc3c(Cl)cncc3Cl)s2)cc1
[1]
  inhibition: inactive
[2]
  inhibition: Active
[3]
  inhibition: inactive
[4]
  inhibition: inactive
